Results reported in patent publication US7101537B2, “Tricyclic quinoxaline and quinoline derivatives as a UV filter” (Merck Patentgesellschaft, priority 2001, dated 2006).

Assay: maxima of UV-A and UV-B absorption of quinoxaline derivatives in 2-propanol
Type: physicochemical
Details: 1 mg of substance per 100 ml of solvent; for UV-A (400 320 nm) Max. abs.: absorbance at UV-A maximum; for UV-A (400 320 nm) λ[nm]: wavelength of UV-A maximum; for UV-B (280 320 nm) Max. abs.: absorbance at UV-B maximum; for UV-B (280 320 nm) λ[nm]: wavelength of UV-B maximum
Experimental: The measurement was carried out in 2-propanol at a concentration of 1 mg of substance per 100 ml of solvent.

Structure (SMILES)	UV-A (400 320 nm) Max. abs.	UV-A (400 320 nm) λ[nm]	UV-B (280 320 nm) Max. abs.	UV-B (280 320 nm) λ[nm]
c1ccc2nc3[nH]cnc3nc2c1	0.5227	328.0 nm	–	–
FC(F)(F)c1nc2nc3ccccc3nc2[nH]1	0.4875	327.5 nm	–	–
CC(C)(C)c1nc2nc3ccccc3nc2[nH]1	0.6290	330.0 nm	–	–
FC(F)(F)c1cc(-c2nc3nc4ccccc4nc3[nH]2)cc(C(F)(F)F)c1	0.7037	358.0 nm	–	–
CC(=O)c1ccc(-n2c(-c3ccccc3)cc3nc4ccccc4nc32)cc1	0.4067	359.0 nm	–	–
CC(=O)c1ccc(-n2c([SiH2]C(C)C)cc3nc4ccccc4nc32)cc1	0.5774	403.0 nm	0.4246	318.0 nm

Second part, led by results:

UV-A (400 320 nm) Max. abs.	UV-A (400 320 nm) λ[nm]	Structure (SMILES)	UV-B (280 320 nm) Max. abs.	UV-B (280 320 nm) λ[nm]
0.5824	327.5 nm	Cc1nc2nc3ccccc3nc2[nH]1	–	–
0.7158	367.0 nm	c1ccc(-c2cc3nc4ccccc4nc3[nH]2)cc1	0.8710	268.0 nm
0.5381	338.0 nm	c1ccc2nc3[nH]ccc3nc2c1	–	–
0.3685	358.0 nm	O=C(O)c1ccc(-n2c(-c3ccccc3)cc3nc4ccccc4nc32)cc1	–	–
